Test results from patent publication EP4650362A1, “NEUROPROTECTIVE PSD-95 POLYPEPTIDE INHIBITOR AND USE THEREOF” (Beijing Tuo Jie Biopharmaceutical Co. Ltd., priority 2023, dated 2024).
Where “and” joins values, the source holds several entries; their conditions need not be identical. Equal entries are not always repeated. Each block holds one compound with its values, some of them ahead of it.

Key:
[1] = plasma stability test, rat plasma; format: in vitro ADME; conditions: 2 µM (test control)
Experimental: (§1) This test example assessed the in vitro stability of polypeptide compounds in rat and human plasma, and is divided into two parts: 1) the stability of the individual polypeptide compounds in rat and human plasma; and 2) the stability of the polypeptide compounds in rat and human plasma when the polypeptide compounds are administered simultaneously with alteplase (rt-PA).
(§2) Solution preparation: An appropriate amount of a test polypeptide compound was weighed out and dissolved in an appropriate amount of 1× PBS to form a 1 mM test solution. NA-1 and NoNO42 were used as positive drugs, propantheline bromide was used as a human plasma test control, and lovastatin was used as a rat plasma test control.
(§3) Plasma stability test: 12.5 µL of the 1 mM test solution was added to a 495 µL pre-incubated plasma sample. The prepared plasma sample was added to centrifuge tubes of different incubation times (0 min, 10 min, 20 min, 30 min, 60 min, and 120 min) (50 µL/tube), and the tubes were then incubated in a water bath at 37 °C with shaking at 60 rpm. For each incubation time, two parallel samples were set. Subsequently, 200 µL of stop solution was added to stop the incubation, and the mixtures were vortexed for 5 min. Then the mixtures were centrifuged at 10,000 rpm at 4 °C for 10 min to remove the protein in the sample, and 70 µL of the supernatant was transferred to a new 96-well plate (70 µL of water was added to each well beforehand) and well mixed.
(§4) The remaining compound content at each time point was determined by LC-MS/MS, and the relative remaining compound contents at the other time points were calculated with the content at 0 min as a standard (100%).
(§5) Sample pretreatment: A 30 µL plasma sample was taken and added to 120 µL of a 5% solution of formic acid in methanol containing 1 ng/mL internal standard (verapamil). The mixture was vortexed for 5 min and centrifuged at low temperature at 10,000 rpm for 10 min. 70 µL of the supernatant was taken, and 70 µL of a 0.1% aqueous solution of formic acid was added and well mixed, and the mixture was injected into an LC-MS system for analysis.
(§6) LC-MS analysis: (1) Chromatographic conditions: mobile phase A: 0.1% formic acid in water; mobile phase B: 0.1% formic acid in acetonitrile; flow rate: 0.5 mL/min; injection volume: 10 µL; chromatography column: nanomicro Unisil C18aq (4.6 mm × 150 mm, 5 µm); column temperature: 40 °C. (2) Mass-spectrometric conditions: The mass spectrometry analysis used an electrospray ionization (ESI) source, a positive ion analysis mode, and a multi-reaction monitoring (MRM) scan mode. The experimental results are shown in Table 4-1, Table 4-2, FIG. 2A, FIG. 2B, FIG. 2C, and FIG. 2D. Table 4-1. The plasma stability of the polypeptide compound

[2] = plasma stability test, human plasma; format: in vitro ADME; conditions: 2 µM (test control)
Experimental: as §1, §2, §3, §4, §5, §6

Biotin-PDZ2 (human) [3] = assay: binding ELISA; peptide coated at 2 µM, Biotin-PDZ2 titrated
Biotin-PDZ2 (human) [4] = assay: binding ELISA; ratio of EC50 on Biotin-PDZ3 to EC50 on Biotin-PDZ2
[5] = biological target: human PSD95-PDZ2 (the tag was removed by TEV enzyme) (human) (UniProt P78352); assay: competitive ELISA; NA-1 reference value printed with compound 15; competitor Biotin-NA-1 at 0.3 µM
[6] = biological target: human PSD95-PDZ2 (the tag was removed by TEV enzyme) (human) (UniProt P78352); assay: competitive ELISA; NA-1 reference value printed with compound 16; competitor Biotin-NA-1 at 0.3 µM
[7] = biological target: human PSD95-PDZ2 (the tag was removed by TEV enzyme) (human) (UniProt P78352); assay: competitive ELISA; NA-1 reference value printed with compound 17; competitor Biotin-NA-1 at 0.3 µM
[8] = biological target: human PSD95-PDZ2 (the tag was removed by TEV enzyme) (human) (UniProt P78352); assay: competitive ELISA; NA-1 reference value printed with compound 22; competitor Biotin-NA-1 at 0.3 µM
PDZ2 = conditions: Science, 2002, 298:846-50; cited from earlier work

Sequence of human PSD95-PDZ2 (the tag was removed by TEV enzyme) (human) (P78352 155-249 limits assumed): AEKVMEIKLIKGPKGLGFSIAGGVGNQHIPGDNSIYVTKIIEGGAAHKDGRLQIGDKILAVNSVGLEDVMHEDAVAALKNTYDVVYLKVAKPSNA

- Relative remaining compound content (%) ([1]; 0min (standard 100%)): 100.0%
- Relative remaining compound content (%) ([1]; 10min): 8.5% and 9.6%
- Relative remaining compound content (%) ([1]; 20min): 1.8% and 2.1%
- Relative remaining compound content (%) ([1]; 30min): 0.7% and 0.9%
Compound: CC[C@H](C)C(=O)O[C@H]1C[C@@H](C)C=C2C=C[C@H](C)[C@H](CC[C@@H]3C[C@@H](O)CC(=O)O3)[C@H]21 [Lovastatin]

- Relative remaining compound content (%) ([2]; 0min (standard 100%)): 100.0%
- Relative remaining compound content (%) ([2]; 10min): 80.2% and 84.0%
- Relative remaining compound content (%) ([2]; 20min): 71.5% and 66.8%
- Relative remaining compound content (%) ([2]; 30min): 63.4% and 53.4%
- Relative remaining compound content (%) ([2]; 60min): 42.7% and 26.4%
- Relative remaining compound content (%) ([2]; 120min): 10.9% and 7.2%
Compound: CC(C)[N+](C)(CCOC(=O)C1c2ccccc2Oc2ccccc21)C(C)C [Propantheline bromide]

Compound: NA-1 (peptide)
- EC50 (Biotin-PDZ2 (human) [3]): 83 nM
- Specificity for PDZ2 (PDZ3/PDZ2) (Biotin-PDZ2 (human) [4]): > 10000
- IC50 [5]: 872 nM
- IC50 [6]: 872 nM
- IC50 [7]: 872 nM
- IC50 [8]: 517 nM

Compound: YGRKKRRQRRRKLSSIEADA (source 1..20: note = NA-1(ADA)) [negative control, mutant of NA-1 obtained by mutating the amino acids at positions 0 and -2 into Ala]
- ability to bind to PDZ2 (PDZ2): no ability to bind to PDZ2
